# Results: patent publication US7271278B2, “Application of chromium-amino acid complexes in the treatment of diabetes and other diseases” (The University of Wyoming, priority 2005, dated 2007)
# How the values were obtained:
# 3T3-adipocytes = experiment: 2-deoxy-D-[3H] glucose uptake in 3T3-L1 adipocytes; format: cell-based, mouse
# Procedure: (§1) The 3T3-L1-pre-adipocytes were obtained from the American Type Culture Collection and were propagated at 37° C. in DMEM with 10% newborn calf serum plus 50 U/ml penicillin and 50 μg/ml streptomycin in an incubator under a humidified atmosphere of 5% CO2/95% air. Induction of differentiation was done one day post-confluence. Cells were maintained in differentiation medium of the following composition: DMEM, 10% FBS, […] dexamethasone, 0.5 mM 1-isobutyl-3-methylxanthine (IBMX) and ITS for three days. At day 3, the dexamethasone and IBMX were removed with ITS remaining on the cells for an additional two days. Differentiation was allowed to continue in DMEM supplemented with 10% FBS, ITS and the adipocytes were used between day 9 and 14 post-induction. Prior to the cellular assays, cells were serum starved by overnight incubation in DMEM (containing 0.2% serum).
# Glucose uptake activity was analyzed by measuring the uptake of 2-deoxy-D-[^3H] glucose as described previously (Sakoda et al. (1999) Diabetes, 48:1365-1371). Briefly, confluent 3T3-L1 adipocytes grown in 6-well plates were washed twice with serum-free DMEM and incubated with 2 ml of the same medium at 37° C. for 2 hours. The cells were washed 3 times with Krebs-Ringer-HEPES (KRH) buffer and incubated with 2 ml KRH buffer at 37° C. for 30 minutes. Insulin (6 nM) and/or Cr(pa)3 (0-25 μM) were then added to adipocytes accompanying the procedure of differentiation. Glucose uptake was initiated by the addition of 0.1 ml KRH buffer and 2-deoxy-D-[^3H] glucose (0.2 μCi/ml) and 5 mM glucose as final concentrations. Glucose uptake was terminated by washing the cells three times with cold PBS. The cells were lysed overnight with 1 ml 0.5M NaOH and 0.1% SDS (w/v). The radioactivity retained by the cell lysates was determined by a scintillation counter (Beckmann LC 6000IC) and normalized to protein amount measured with a Micro BCA Protein Assay Kit (Pierce Chemical, Rockford, Ill.).
# insulin receptor beta = experiment: Insulin-stimulated IRβ tyrosine phosphorylation, Western blot of 3T3-adipocyte lysates; format: cell-based, mouse
# Procedure: as §1
# Cells were lysed in RIPA buffer (150 mM NaCl, 0.25% sodium desoxycholate, 1% NP-40, 1 mM EDTA and 50 mM Tris, pH 7.2) containing 2 mM sodium vanadate, 1 μM PMSF, 1 μM sodium fluoride, 1 μg/ml aprotinin, 1 μg/ml leupeptin, and 1 μM pepstatin and sonicated to reduce the sample viscosity. The lysate was centrifuged at 15000×g for 15 minutes at 4° C. and the protein concentration in the supernatant was determined by the bicinchoninic acid method. Equivalent amounts of proteins were boiled in Laemmli sample buffer. Proteins 10-20 μg were separated on 7.5-10% polyacrylamide gel, and electrophoretically transferred to a nitrocellulose membrane. The membranes were incubated for 1 hour at room temperature in blocking buffer (5% w/v non-fat dry milk in tris buffered saline containing 0.1% Tween 20). Membranes were incubated in appropriate phospho-specific primary antibody for insulin receptor beta or Akt at 1:2500 dilutions in the blocking buffer followed by incubation with horseradish peroxidase-coupled secondary antibodies with appropriate specificity. Immunoreactive bands were visualized using enhanced chemiluminescence reagents (Cell Signaling Technology, Inc, Beverly, Mass.). […]
# Akt [1] = experiment: Insulin-stimulated Akt (thr308) phosphorylation, Western blot of 3T3-adipocyte lysates; format: cell-based, mouse
# Procedure: as §1
# Cells were lysed in RIPA buffer (150 mM NaCl, 0.25% sodium desoxycholate, 1% NP-40, 1 mM EDTA and 50 mM Tris, pH 7.2) containing 2 mM sodium vanadate, 1 μM PMSF, 1 μM sodium fluoride, 1 μg/ml aprotinin, 1 μg/ml leupeptin, and 1 μM pepstatin and sonicated to reduce the sample viscosity. The lysate was centrifuged at 15000×g for 15 minutes at 4° C. and the protein concentration in the supernatant was determined by the bicinchoninic acid method. Equivalent amounts of proteins were boiled in Laemmli sample buffer. Proteins 10-20 μg were separated on 7.5-10% polyacrylamide gel, and electrophoretically transferred to a nitrocellulose membrane. The membranes were incubated for 1 hour at room temperature in blocking buffer (5% w/v non-fat dry milk in tris buffered saline containing 0.1% Tween 20). Membranes were incubated in appropriate phospho-specific primary antibody for insulin receptor beta or Akt at 1:2500 dilutions in the blocking buffer followed by incubation with horseradish peroxidase-coupled secondary antibodies with appropriate specificity. Immunoreactive bands were visualized using enhanced chemiluminescence reagents (Cell Signaling Technology, Inc, Beverly, Mass.). Blots were then stripped and re-probed with antibodies directed against insulin receptor β and Akt.
# ob/ob(+/+) mice [2] = experiment: Intraperitoneal glucose tolerance test (IPGTT) in ob/ob(+/+) and lean mice; format: in vivo, mouse
# Source text: (§2) All animal treatment procedures described in this example were approved by the animal Care and Use Committee at University of Wyoming (Laramie, Wyo.). Homozygous B6.V-lep ob>/J male mice purchased from the Jackson Laboratory (Bar Harbor, Me.) at age 5 weeks were divided randomly into two weight-matched groups, marked as ob/ob(+/+) control and ob/ob(+/+) treatment (n=10). Number, age and weight matched normal C57 mice were used as lean control. All of these animals were maintained on conventional laboratory diet under well-controlled conditions of temperature (22±2° C.), humidity (55±5%) and 12 hour/12 hour light-dark cycle and had ad libitum access to water and standard rodent chow. Rodent diet and tap water were consumed by mice ad libitum. Cr(pa)3 was provided in the drinking water and, on the basis of water intake, was administered to provide an intake of about 150 μg/kg/day corresponding to about 10-15 μg elemental Cr/kg/day for ob/ob(+/+) and lean treatment groups. The dosage of chromium used was based on earlier animal studies reported with chromium picolinate (Cefalu et al. (2002) J. Nutr., 132:1107-1114).
# At the end of the treatment schedule, mice were subjected to the intraperitoneal glucose tolerance test (IPGTT) as described previously (Hintz et al. (2003) Int. J. Obes. Relat. Metab. Disord., 27:1196-1203). Briefly, the mice were fasted for 12 hours and then given intraperitoneal injection of glucose (2 g/kg body weight). Glucose levels were determined in blood drops obtained by clipping the tail of the mice immediately before glucose challenge, as well as at 15, 60 and 120 minutes thereafter. Serum glucose levels were determined using ACCU-CHEK® Advantage® Glucose Analyzer (Roche Diagnostics Corporation, Ind.). Results of IPGTT are also expressed as integrated areas under the curves (AUC) over 120 minutes for glucose calculated by using the WinNonlin software (Pharsight Corporation, Mountain View, Calif.).
# [3] = Body and organ weight of ob/ob(+/+) mice after 6-week treatment; format: in vivo, mouse
# Source text: as §2
# All animal treatment procedures described in this study were approved by the Animal Care and Use Committee at University of Wyoming (Laramie, Wyo.). […] Weights of body and other organs were measured with a standard laboratory scale.
# [4] = Deoxyribose degradation assay for generation of hydroxyl radicals; details: 1.2 μM
# Procedure: The potential of chromium compounds to generate hydroxyl radicals in vitro was assessed by the method reported previously (Halliwell et al. (1987) Anal. Biochem., 165:215-219). Briefly, a reaction mixture containing either chromium picolinate or Cr(pa)3, 2-deoxyribose (4 mM), ascorbic acid (100 μM) and hydrogen peroxide (100 μM) in potassium phosphate buffer (pH 7.4, 10 mM) was incubated at 37° C. for 30 minutes. An aliquot of the mixture was treated with 1% (w/v) thiobarbituric acid and 2.8% (w/v) trichloroacetic acid and heated at 90° C. for 10 minutes, rapidly cooled and the amount of chromogen formed in the sample was measured by its absorption at 532 nm. Ferric-EDTA (100 μM) was used as a positive control.
# ob/ob(+/+) mice [5] = experiment: Plasma/serum lipids (total cholesterol, HDL) in obese mice; format: in vivo, mouse
# Procedure: Specifically, mice were treated with Cr(pa)3 at 150 μg/kg/day for six weeks. Cholesterol levels were determined by using a kit from Equal Diagnostics (Exton, Pa.) following the manufacturer's protocol.
# (§3) All animal treatment procedures described in this study were approved by the Animal Care and Use Committee at University of Wyoming (Laramie, Wyo.). Homozygous B6.Vlep/J male mice purchased from the Jackson Laboratory (Bar Harbor, Me.) at age 5 weeks were divided randomly into two weight-matched groups, marked as ob/ob(+/+) control and ob/ob(+/+) treatment (n=12). Number and age-matched normal C57 mice were used as lean control. All animals were maintained on conventional laboratory diet under well-controlled conditions of temperature (22±2° C.), humidity (55±5%) and 12 hours/12 hours light-dark cycle and had ad libitum access to water and standard rodent chow. Cr(D-Phe)3 was provided in the drinking water and, on the basis of water intake, was administered to provide an intake of about 150 μg/kg/day corresponding to about 10-15 μg elemental Cr/kg/day) for ob/ob(+/+) and lean treatment groups. […] The livers of these mice were frozen in liquid nitrogen immediately and stored at −80° C. until use. Blood was collected from the heart, and the serum was extracted by centrifuging the blood at 1000 g at 4° C. and stored at −80° C. Weights of body and other organs were measured with a standard laboratory scale.
# Serum levels of total cholesterol, high-density-lipoprotein (HDL) and triglycerides were measured using commercial kits (from Equal Diagnostics, Exton, Pa.) and SpectraMax 340PC^384 Microplate Reader System (Molecular Device, Sunnyvale, Calif.).
# ob/ob(+/+) mice [6] = experiment: Insulin-challenge test in ob/ob(+/+) and lean mice; format: in vivo, mouse; details: vs vehicle-treated group
# Source text: as §3, with “Blood was collected from the heart, and the serum was extracted by centrifuging the blood at 1000 g at 4° C. and stored at −80° C.” left out
# At the end of the treatment schedule, mice were given intraperitoneal injections of insulin (1 U/kg body weight). Blood glucose levels were determined by the tail-clip method at different time points as described hereinabove.
# Akt [7] = experiment: Hepatic Akt and insulin receptor phosphorylation, Western blot of liver homogenates; format: in vivo, mouse; details: obese mice
# Source text: as §3
# Liver tissues lysates were subjected to Western blot analysis as described hereinabove using phospho specific antibodies against Akt. Blots were then stripped and re-probed with antibodies directed against antibodies directed at the total protein.
# ob/ob(+/+) mice [8] = experiment: Lipid-peroxidation (malondialdehyde) and protein carbonyl in liver homogenate of treated mice; format: in vivo, mouse; details: obese mice, 150 μg/kg/day 6 weeks, vs untreated obese
# Source text: All animal treatment procedures described in this study were approved by the Animal Care and Use Committee at University of Wyoming (Laramie, Wyo.). Homozygous B6.Vlep/J male mice purchased from the Jackson Laboratory (Bar Harbor, Me.) at age 5 weeks were divided randomly into two weight-matched groups, marked as ob/ob(+/+) control and ob/ob(+/+) treatment (n=12). Number and age-matched normal C57 mice were used as lean control. All animals were maintained on conventional laboratory diet under well-controlled conditions of temperature (22±2° C.), humidity (55±5%) and 12 hours/12 hours light-dark cycle and had ad libitum access to water and standard rodent chow. […] Weights of body and other organs were measured with a standard laboratory scale.
# The end product of lipid-peroxidation, namely malondialdehyde (MDA), was estimated in the liver tissue homogenates by the colorimetric kit (Bioxytech LPO-586, Portland, Oreg.) using 1,1,3,3-tetra-ethoxypropane as a standard according to the manufacturer's specifications. This assay is based on the reaction of a chromogenic reagent N-methyl-2-phenylindole with MDA at 45° C. which yields a stable chromophore with absorbance maxima at 586 nm. […]
# [9] = In vitro lipid-peroxidation of rat brain homogenate stimulated by hydrogen peroxide and ascorbate; format: biochemical; details: rat-brain homogenate 10% w/v, hydrogen peroxide 1 mM, ascorbate 1 mM, 30 min; concentration-dependent
# Procedure: The end product of lipid-peroxidation, namely malondialdehyde (MDA), was estimated in the liver tissue homogenates by the colorimetric kit (Bioxytech LPO-586, Portland, Oreg.) using 1,1,3,3-tetra-ethoxypropane as a standard according to the manufacturer's specifications. This assay is based on the reaction of a chromogenic reagent N-methyl-2-phenylindole with MDA at 45° C. which yields a stable chromophore with absorbance maxima at 586 nm. Ability of Cr(D-Phe)3 to inhibit in vitro lipid-peroxidation was assessed in rat-brain homogenates (10% w/v) by incubating Cr(D-Phe)3 in the presence of hydrogen peroxide (1 mM) and ascorbic acid (1 mM) for 30 min at 37° C. followed by measuring MDA as described previously (Sreejayan et al. (1994) J. Pharm. Pharmacol., 46:1013-1016).
# pUC19 DNA = experiment: Ascorbate-stimulated cleavage of pUC19 DNA; details: 1.2 μM, ascorbic acid, pUC19 DNA 38 μM
# Procedure: DNA cleavage-stimulated by chromium compounds was assessed as described previously (Speetjens et al. (1999) Chem. Res. Toxicol., 12:483-487). All solutions were prepared using Chelex-100 treated water to remove any traces of metal ions. […] Reactions were allowed to proceed 60 minutes at room temperature followed by quenching with 2 μl of nucleic acid sample loading buffer. The mixtures were loaded directly onto a 1% agarose gel pre-stained by ethidium bromide and electrophoresed at 60 V. The gels were photographed on a UV transilluminator.
molecule,measurement,setting,value
"N[C@H](Cc1ccccc1)C(=O)O.[Cr+3] [Cr(pa)3, chromium (III) D-phenylalanine]",insulin-stimulated glucose uptake,"3T3-adipocytes; Cr(pa)3 5 and 25 μM, insulin 6 nM, vs insulin-stimulated untreated cells",significantly augmented
same,basal glucose uptake,3T3-adipocytes; absence of insulin,did not have any effect
same,protein levels of insulin receptor,insulin receptor beta; 3T3-adipocytes,does not increase
same,IRβ phosphorylation induced by submaximal insulin,insulin receptor beta; insulin 1 nM,not altered
same,insulin-stimulated IRβ tyrosine phosphorylation,"insulin receptor beta; pretreatment for various time or at different concentrations, insulin 10 nM 10 minutes",not altered
same,phosphorylation levels of Akt,"Akt [1]; Cr(pa)3 alone, absence of insulin",did not alter
same,stimulation of insulin-stimulated Akt phosphorylation compared to chromium picolinate,Akt [1]; equimolar concentrations,greater stimulation
same,in vitro Akt phosphorylation among various chromium complexes,"Akt [1]; insulin 10 nM, vs Cr(Pic)3, Cr(AcAc)3, Cr(Sal)3, CrCl3",greatest amount
same,insulin-stimulated Akt (thr308) phosphorylation,"Akt [1]; pretreatment, insulin 10 nM, concentration- and time-dependent",further increase
same,"AUC of glucose, lean mice","ob/ob(+/+) mice [2]; lean mice, treated vs untreated",no significant changes
same,serum glucose levels post-glucose-challenge,"ob/ob(+/+) mice [2]; ob/ob(+/+) mice, 150 μg/kg/d 6 weeks, 15 and 60 minutes, vs untreated",significantly lower
same,integrated AUC over 120 minutes of glucose,"ob/ob(+/+) mice [2]; ob/ob(+/+) mice, 150 μg/kg/d 6 weeks, vs untreated",significantly lower
same,difference in body weight,[3]; ob/ob(+/+) mice treated vs untreated,no significant difference
same,"body-mass indices (body, heart, liver, kidney weights)","[3]; obese mice, 150 μg/kg/day six weeks",did not alter
same,degradation of deoxyribose,[4],failed to cause any degradation of deoxyribose
same,serum HDL-cholesterol levels,ob/ob(+/+) mice [5]; 150 μg/kg/day 6 weeks,did not alter
same,total serum cholesterol levels,ob/ob(+/+) mice [5]; 150 μg/kg/day 6 weeks (Example 2),significant lowering
same,plasma cholesterol levels,ob/ob(+/+) mice [5]; 150 μg/kg/day six weeks (Example 1),significantly attenuated
same,"blood glucose level after insulin-challenge, lean mice",ob/ob(+/+) mice [6],failed to further lower the blood glucose level
same,levels of phospho-Akt in liver homogenate,"Akt [7]; oral 150 μg/kg/day 6 weeks, basal",failed to significantly enhance
same,levels of total Akt protein in liver homogenate,Akt [7]; oral treatment,Neither did the treatment alter
same,phosphorylation of insulin-receptors in liver,Akt [7]; same blots reprobed for phosphorylated insulin receptor beta,no changes
same,malondialdehyde (lipid-peroxidation) in liver homogenate,ob/ob(+/+) mice [8],significantly lower
same,protein carbonyl formation in liver homogenate,ob/ob(+/+) mice [8],significantly lower
same,in vitro lipid-peroxidation (malondialdehyde equivalents),[9],inhibited
same,DNA strand breaks (supercoiled to circular nicked pUC19),pUC19 DNA,failed to induce any strand breaks
insulin,increase in glucose uptake by adipocytes,3T3-adipocytes; insulin 6 nM during differentiation,fourfold
